Values quoted from earlier work as cited in patent publication US20110059175A9, “ENHANCING SOLUBILITY AND DISSOLUTION RATE OF POORLY SOLUBLE DRUGS” (K.U.LEUVEN RESEARCH AND DEVELOPMENT, priority 2006, published 2011).
≈ marks a conversion by molar mass, not a printed value. Read-outs that look alike come from different tables or passages of the source. Each block holds one compound with its values, some of them ahead of it.

What was measured:
[1] = not given; remark: listed apart in the source
[2] = determined; Peeters et al., 2002
[3] = not given; remark: listed apart in the source

solubility in water (water): practically insoluble
SMILES: NC(=O)N1c2ccccc2C=Cc2ccccc21 [Carbamazepine, 5H-dibenz[b,f]azepine-5-carboxamide]

time at which peak concentrations occur ([1]; administered orally): ≤ 2 h | increase in plasma concentration on doubling the dose ([1]; doubling the dose): 30-40% | half-life ([1]; in vivo): 4 to 5 h
SMILES: C#C[C@]1(O)CC[C@H]2[C@@H]3CCC4=Cc5oncc5C[C@]4(C)[C@H]3CC[C@@]21C [Danazol, 17a-Pregna-2,4-dien-20-yno[2,3-d]-isoxazol-17-ol]

pKa4 [2]: 4.0 | aqueous solubility (S) (neutral pH): ~0.001 µg/mL (≈ 0.00142 µM) | aqueous solubility (S) (pH 1): 4 µg/mL (≈ 5.67 µM) | permeability [3]: adequate
SMILES: CCC(C)n1ncn(-c2ccc(N3CCN(c4ccc(OCC5COC(Cn6cncn6)(c6ccc(Cl)cc6Cl)O5)cc4)CC3)cc2)c1=O (centres unmarked) [Itraconazole]
